Tested on: Ps. cepacia
Test: Challenge test of BANS against Ps. cepacia (preservative effectiveness)
Type: cell-based, Pseudomonas cepacia (now known as Burkhoderia cepacia)
Details: phenylethylalcohol together with benzalkonium chloride in the formulation; FIG. 7
Text: 4) Challenge Test of BANS Against Ps. Cepacia
Formulations corresponding to BANS and the same formulation containing only 0.02% (w/w) benzalkonium chloride as preservative (i.e. no phenylethyl alcohol) and the same formulation containing only 0.275% (v/w) phenylethylalcohol as preservative (i.e. no benzalkonium chloride) were challenged with an innoculum of Ps cepacia.

OCCc1ccccc1 [phenylethylalcohol, Phenylethyl alcohol]
preservative properties by killing Pseudomonas cepacia: synergistic effect with benzalkonium chloride

Source: patent US6780398B1, “Aqueous nasal formulation” (Glaxo Smithkline Kabushiki Kaisha, priority 1999, dated 2004)
